Laboratory results taken from US7572765B2, “Conformationally constrained parathyroid hormone (PTH) analogs” (The General Hospital Corporation, priority 2001, dated 2009).
Square brackets hold non-standard residues; d marks the D form. Peptide text beside a SMILES is read from it. hArg = N=C(N)NCCCC[C@H](N)C(=O)O; Aib = CC(C)(N)C(=O)O

Molecular target: T1, P1R-delNt, truncated human P1R deleted for residues (24-181) (Homo sapiens, UniProt Q03431)
T1 construct: expressed in transfected cells; host or cells: COS-7 (transient, FuGENE 6)
T1 sequence (Q03431 with tags, fused parts or gaps limits assumed): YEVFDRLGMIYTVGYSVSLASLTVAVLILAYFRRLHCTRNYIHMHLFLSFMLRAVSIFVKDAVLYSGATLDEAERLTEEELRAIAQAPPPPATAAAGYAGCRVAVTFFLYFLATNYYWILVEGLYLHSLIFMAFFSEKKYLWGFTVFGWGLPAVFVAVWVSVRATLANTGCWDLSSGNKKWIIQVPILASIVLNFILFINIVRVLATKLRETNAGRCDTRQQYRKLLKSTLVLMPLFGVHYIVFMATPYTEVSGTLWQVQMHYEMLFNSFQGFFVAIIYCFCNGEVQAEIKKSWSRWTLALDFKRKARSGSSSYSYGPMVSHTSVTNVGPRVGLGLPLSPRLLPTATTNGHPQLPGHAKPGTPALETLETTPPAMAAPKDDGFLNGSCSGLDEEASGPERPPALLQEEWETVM
Assay: Stimulation of inositol phosphate production (PLC) in COS-7 cells expressing hP1R-delNt
Assay type: cell-based
Details: for increase in inositol phosphate (IP) production relative to the basal level: P1R-delNt
Experimental: Cell Culture. The cell line HKRK-B28 (Takasu, H., et al., J. Bone Miner. Res. 14:11-20 (1999)) was derived from the porcine kidney cell line, LLC-PK1 by stable transfection with plasmid DNA encoding the human P1R and expresses ˜280,000 receptors per cell. These cells, as well as COS-7 cells and SaOS-2-B10 cells, were cultured at […] in T-75 flasks ([…]) in Dulbecco's modified Eagle's medium (DMEM) supplemented with fetal bovine serum (10%), penicillin G (20 units/ml), streptomycin sulfate (20 μg/ml) and amphotericin B (0.05 μg/ml) in a humidified atmosphere containing 5% CO2. Stock solutions of EGTA/trypsin and antibiotics were from GIBCO; fetal bovine serum was from Hyclone Laboratories (Logan, Utah). COS-7 cells sub-cultured in 24-well plates were transfected with plasmid DNA (200 ng per well) encoding the wild-type human P1R or truncated human P1R deleted for residues (24-181) (Shimizu, M., et al., J. Biol. Chem. 275:21836-21843 (2000)) that was purified by cesium chloride/ethidium bromide density gradient centrifugation, and FuGENE 6 transfection reagent (Roche Indianapolis Ind.) according to the manufacturer's recommended procedure. All cells, in 24-well plates, were treated with fresh media and shifted to 33° C. for 12 to 24 h prior to assay.
Stimulation of Inositol Phosphate Production. COS-7 cells transfected as above with P1R-WT were treated with serum-free, inositol-free DMEM containing 0.1% bovine serum albumin and [^3H]myo-inositol (NEN, Boston, Mass.) (2 μCi/mL) for 16 h prior to assay. At the time of the assay, the cells were rinsed with binding buffer containing LiCl (30 mM) and treated with the same buffer with or without a PTH analog. The cells were then incubated at 37° C. for 40 min, after which the buffer was removed and replaced by 0.5 mL of ice cold 5% trichloroacetic acid solution. After 3 h on ice, the lysate was collected and extracted twice with ethyl ether. The lysate was then applied to an ion exchange column (0.5 mL resin bed) and the total inositol phosphates were eluted as described previously (Berridge, M. J., et al., Biochem. J. 212:473-482 (1983)), and counted in liquid scintillation cocktail.
Thus, the truncated receptor can couple to the PCL signaling pathway when stimulated with the Aib-containing PTH peptide. […] Thus, the Aib-1,3 substitutions enhance the ligand's capacity to stimulate PLC activity with P1R-WT, as well as with P1R-delNt.

increase in inositol phosphate (IP) production relative to the basal level	PLC EMAX(obs.) (hP1R-delNT)	EC50 (hP1R-delNT, dash = no PLC response observed)	SMILES
inactive			CCCC[C@H](NC(=O)[C@H](CCCNC(=N)N)NC(=O)[C@H](CCC(=O)O)NC(=O)[C@@H](NC(=O)[C@H](CO)NC(=O)[C@H](C)NC(=O)[C@H](CC(C)C)NC(=O)[C@H](Cc1c[nH]cn1)NC(=O)[C@H](CCCCN)NC(=O)CNC(=O)[C@H](CC(C)C)NC(=O)[C@H](CC(N)=O)NC(=O)[C@H](Cc1c[nH]cn1)NC(=O)[C@H](CCCC)NC(=O)[C@H](CC(C)C)NC(=O)[C@H](CCC(N)=O)NC(=O)[C@@H](NC(=O)[C@H](CCC(=O)O)NC(=O)[C@H](CO)NC(=O)[C@@H](NC(=O)[C@H](C)N)C(C)C)[C@@H](C)CC)C(C)C)C(=O)N[C@@H](CCC(N)=O)C(=O)N[C@@H](Cc1c[nH]c2ccccc12)C(=O)N[C@@H](CC(C)C)C(=O)N[C@@H](CCCNC(=N)N)C(=O)N[C@@H](CCCCN)C(=O)N[C@@H](CCCCN)C(=O)N[C@@H](CC(C)C)C(=O)N[C@@H](CCC(N)=O)C(=O)N[C@@H](CC(=O)O)C(=O)N[C@H](C(=O)N[C@@H](Cc1c[nH]cn1)C(=O)N[C@@H](CC(N)=O)C(=O)N[C@@H](Cc1ccc(O)cc1)C(N)=O)C(C)C [PTH(1-34), [Nle^8,21, Tyr^34]PTH(1-34)amide, reference compound]
inactive			CC[C@H](C)[C@H](NC(=O)[C@H](CCC(=O)O)NC(=O)[C@H](C)NC(=O)[C@@H](NC(=O)[C@H](C)N)C(C)C)C(=O)N[C@@H](CCC(N)=O)C(=O)N[C@@H](CC(C)C)C(=O)N[C@@H](CCSC)C(=O)N[C@@H](Cc1c[nH]cn1)C(=O)N[C@@H](CCC(N)=O)C(=O)N[C@@H](CCCCNC(=N)N)C(=O)N[C@@H](C)C(=O)N[C@@H](CCCCN)C(=O)N[C@@H](Cc1c[nH]c2ccccc12)C(N)=O [[M]PTH(1-14), [Ala^3,12,Gln^10,Har^11,Trp^14]PTH(1-14)amide, reference compound] (H-AVAEIQLMHQ[hArg]AKW-NH2)
~3 fold	3.1 ± 0.2 foldxbasal	130 ± 30 nM	CC[C@H](C)[C@H](NC(=O)[C@H](CCC(=O)O)NC(=O)C(C)(C)NC(=O)[C@@H](NC(=O)C(C)(C)N)C(C)C)C(=O)N[C@@H](CCC(N)=O)C(=O)N[C@@H](CC(C)C)C(=O)N[C@@H](CCSC)C(=O)N[C@@H](Cc1c[nH]cn1)C(=O)N[C@@H](CCC(N)=O)C(=O)N[C@@H](CCCCNC(=N)N)C(=O)N[C@@H](C)C(=O)N[C@@H](CCCCN)C(=O)N[C@@H](Cc1c[nH]c2ccccc12)C(N)=O [[Aib^1,3,M]PTH(1-14), AibValAibGluIleGlnLeuMetHisGlnHarAlaLysTrp] (H-[Aib]V[Aib]EIQLMHQ[hArg]AKW-NH2)
